Assay results published in the Kinase Knowledgebase extract (Sharma et al. 2016).

Assays:
PIK3CD (Human) [1] = molecular target: PIK3CD (Human) (UniProt O00329); assay: Cell-Based Assay; conditions: raji
PIK3CA (human) = PIK3CA (human) (UniProt P42336); assay: Enzyme Assay
PIK3CD (Human) [2] = molecular target: PIK3CD (Human) (UniProt O00329); assay: Enzyme Assay
PIK3CG (human) = PIK3CG (human) (UniProt P48736); assay: Enzyme Assay
PIK3CB (Human) = PIK3CB (Human) (UniProt P42338); assay: Enzyme Assay
Chain of PIK3CB (Human) (P42338 whole entry, looked up): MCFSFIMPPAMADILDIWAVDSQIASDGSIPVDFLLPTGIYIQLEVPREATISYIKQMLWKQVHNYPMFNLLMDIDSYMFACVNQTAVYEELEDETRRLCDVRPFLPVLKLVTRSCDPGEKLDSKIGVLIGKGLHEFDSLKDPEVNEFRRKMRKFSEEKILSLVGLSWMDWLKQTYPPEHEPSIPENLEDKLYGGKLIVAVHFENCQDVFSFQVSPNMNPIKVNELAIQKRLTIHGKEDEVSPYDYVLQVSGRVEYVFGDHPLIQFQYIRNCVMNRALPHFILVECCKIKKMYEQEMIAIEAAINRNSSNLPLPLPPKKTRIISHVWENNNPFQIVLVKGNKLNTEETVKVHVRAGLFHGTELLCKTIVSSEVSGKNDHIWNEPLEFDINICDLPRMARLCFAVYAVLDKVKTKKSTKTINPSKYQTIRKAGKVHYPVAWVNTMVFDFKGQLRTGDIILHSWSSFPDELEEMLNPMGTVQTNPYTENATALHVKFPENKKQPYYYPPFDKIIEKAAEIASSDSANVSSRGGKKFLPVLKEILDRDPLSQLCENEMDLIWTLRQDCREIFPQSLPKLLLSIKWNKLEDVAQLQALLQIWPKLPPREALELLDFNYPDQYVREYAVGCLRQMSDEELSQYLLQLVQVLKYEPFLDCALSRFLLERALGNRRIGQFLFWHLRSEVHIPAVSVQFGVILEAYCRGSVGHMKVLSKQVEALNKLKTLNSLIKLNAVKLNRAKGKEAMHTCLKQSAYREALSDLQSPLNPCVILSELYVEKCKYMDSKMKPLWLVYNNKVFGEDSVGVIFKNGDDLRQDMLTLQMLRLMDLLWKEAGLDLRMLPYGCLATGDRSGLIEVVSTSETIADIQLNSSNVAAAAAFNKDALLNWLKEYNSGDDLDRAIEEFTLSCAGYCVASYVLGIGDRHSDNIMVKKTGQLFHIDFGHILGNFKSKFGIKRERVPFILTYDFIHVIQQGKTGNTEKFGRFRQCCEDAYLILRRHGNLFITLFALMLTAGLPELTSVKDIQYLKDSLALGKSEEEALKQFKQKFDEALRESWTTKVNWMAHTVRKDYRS

Chain of PIK3CD (Human) (O00329 whole entry, looked up): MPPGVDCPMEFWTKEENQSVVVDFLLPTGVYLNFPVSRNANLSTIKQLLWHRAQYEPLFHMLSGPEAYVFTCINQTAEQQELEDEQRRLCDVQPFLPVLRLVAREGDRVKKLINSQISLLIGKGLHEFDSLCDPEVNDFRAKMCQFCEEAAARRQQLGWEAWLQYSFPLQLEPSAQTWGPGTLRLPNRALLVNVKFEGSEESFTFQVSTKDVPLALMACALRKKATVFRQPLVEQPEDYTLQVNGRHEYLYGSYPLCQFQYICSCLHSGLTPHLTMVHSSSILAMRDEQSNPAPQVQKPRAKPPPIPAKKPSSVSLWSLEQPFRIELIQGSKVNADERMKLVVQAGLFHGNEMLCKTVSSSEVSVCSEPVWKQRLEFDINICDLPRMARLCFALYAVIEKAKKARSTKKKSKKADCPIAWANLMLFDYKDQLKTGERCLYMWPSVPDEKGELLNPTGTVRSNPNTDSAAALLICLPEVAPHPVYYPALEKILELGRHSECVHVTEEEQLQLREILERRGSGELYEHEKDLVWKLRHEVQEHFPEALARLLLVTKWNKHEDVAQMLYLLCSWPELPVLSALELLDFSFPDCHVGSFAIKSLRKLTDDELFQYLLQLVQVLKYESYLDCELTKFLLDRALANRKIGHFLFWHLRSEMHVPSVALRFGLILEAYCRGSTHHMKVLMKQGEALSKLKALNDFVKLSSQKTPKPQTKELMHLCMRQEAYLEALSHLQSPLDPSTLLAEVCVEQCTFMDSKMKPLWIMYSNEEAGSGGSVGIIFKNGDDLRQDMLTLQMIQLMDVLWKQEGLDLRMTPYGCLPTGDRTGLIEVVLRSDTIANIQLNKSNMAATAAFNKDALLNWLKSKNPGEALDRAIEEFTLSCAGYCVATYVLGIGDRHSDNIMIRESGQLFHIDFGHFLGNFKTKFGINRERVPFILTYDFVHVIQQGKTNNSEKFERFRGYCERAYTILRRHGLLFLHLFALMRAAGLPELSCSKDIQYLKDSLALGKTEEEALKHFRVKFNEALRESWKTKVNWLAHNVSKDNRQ
Chain of PIK3CG (human) (P48736 whole entry, looked up): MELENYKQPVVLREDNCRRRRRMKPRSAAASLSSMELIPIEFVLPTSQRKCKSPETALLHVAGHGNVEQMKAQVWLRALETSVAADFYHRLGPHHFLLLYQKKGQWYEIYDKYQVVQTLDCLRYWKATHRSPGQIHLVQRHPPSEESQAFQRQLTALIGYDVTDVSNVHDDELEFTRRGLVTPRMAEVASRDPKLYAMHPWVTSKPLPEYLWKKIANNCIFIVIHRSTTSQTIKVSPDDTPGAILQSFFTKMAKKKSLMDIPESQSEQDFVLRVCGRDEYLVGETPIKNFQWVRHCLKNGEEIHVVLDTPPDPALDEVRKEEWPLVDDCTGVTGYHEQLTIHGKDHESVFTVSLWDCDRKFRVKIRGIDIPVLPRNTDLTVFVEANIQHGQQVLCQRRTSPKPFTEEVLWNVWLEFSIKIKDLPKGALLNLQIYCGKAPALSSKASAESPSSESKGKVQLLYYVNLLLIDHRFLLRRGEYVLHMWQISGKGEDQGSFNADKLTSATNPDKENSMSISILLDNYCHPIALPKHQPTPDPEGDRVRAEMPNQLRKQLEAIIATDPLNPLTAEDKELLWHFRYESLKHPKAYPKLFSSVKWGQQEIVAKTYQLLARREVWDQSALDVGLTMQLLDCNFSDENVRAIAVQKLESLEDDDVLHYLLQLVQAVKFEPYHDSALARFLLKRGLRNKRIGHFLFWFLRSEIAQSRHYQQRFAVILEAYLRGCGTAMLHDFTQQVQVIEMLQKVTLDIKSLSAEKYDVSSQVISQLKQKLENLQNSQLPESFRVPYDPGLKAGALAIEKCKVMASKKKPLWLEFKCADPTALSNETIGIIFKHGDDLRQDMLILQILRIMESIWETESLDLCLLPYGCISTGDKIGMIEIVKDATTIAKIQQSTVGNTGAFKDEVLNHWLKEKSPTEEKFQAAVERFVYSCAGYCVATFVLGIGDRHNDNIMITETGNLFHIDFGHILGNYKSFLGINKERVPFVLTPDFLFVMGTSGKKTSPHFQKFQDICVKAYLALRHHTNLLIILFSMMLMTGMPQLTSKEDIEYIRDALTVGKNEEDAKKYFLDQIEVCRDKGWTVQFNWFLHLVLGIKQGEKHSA
Chain of PIK3CA (human) (P42336 whole entry, looked up): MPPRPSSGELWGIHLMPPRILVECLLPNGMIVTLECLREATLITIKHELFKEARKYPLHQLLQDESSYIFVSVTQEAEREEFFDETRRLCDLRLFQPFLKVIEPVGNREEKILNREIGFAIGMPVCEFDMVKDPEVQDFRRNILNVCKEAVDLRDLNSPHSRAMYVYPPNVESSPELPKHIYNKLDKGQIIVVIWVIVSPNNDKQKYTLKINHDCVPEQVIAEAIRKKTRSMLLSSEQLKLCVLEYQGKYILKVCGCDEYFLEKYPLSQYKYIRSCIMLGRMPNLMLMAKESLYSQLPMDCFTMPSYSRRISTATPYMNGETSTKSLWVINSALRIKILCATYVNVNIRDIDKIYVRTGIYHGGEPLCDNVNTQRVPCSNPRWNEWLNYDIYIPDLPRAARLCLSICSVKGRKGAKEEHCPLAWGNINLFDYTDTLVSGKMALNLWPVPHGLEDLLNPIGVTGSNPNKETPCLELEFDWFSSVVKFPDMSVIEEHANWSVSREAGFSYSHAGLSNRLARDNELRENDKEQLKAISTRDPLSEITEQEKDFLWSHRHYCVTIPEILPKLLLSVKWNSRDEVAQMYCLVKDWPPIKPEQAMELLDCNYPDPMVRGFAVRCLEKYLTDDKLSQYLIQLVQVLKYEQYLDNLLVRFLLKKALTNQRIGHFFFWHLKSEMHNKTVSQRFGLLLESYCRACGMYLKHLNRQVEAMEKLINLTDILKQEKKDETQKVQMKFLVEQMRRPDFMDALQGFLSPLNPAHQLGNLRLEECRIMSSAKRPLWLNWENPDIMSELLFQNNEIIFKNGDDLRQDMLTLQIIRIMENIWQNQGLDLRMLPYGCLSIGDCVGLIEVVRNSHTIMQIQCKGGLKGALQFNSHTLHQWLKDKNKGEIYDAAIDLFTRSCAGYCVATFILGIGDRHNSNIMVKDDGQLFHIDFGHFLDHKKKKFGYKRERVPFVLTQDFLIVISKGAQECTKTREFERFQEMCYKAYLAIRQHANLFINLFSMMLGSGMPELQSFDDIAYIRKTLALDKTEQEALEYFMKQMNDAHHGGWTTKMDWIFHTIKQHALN

Structure (SMILES) | IC50 (PIK3CD (Human) [1]) [µM] | IC50 (PIK3CA (human)) [µM] | IC50 (PIK3CD (Human) [2]) [µM] | IC50 (PIK3CG (human)) [µM] | IC50 (PIK3CB (Human)) [µM]
C#Cc1cccc2cc([C@H](C)NC(=O)c3c(N)nn4cccnc34)n(-c3ccccc3)c(=O)c12 | < 0.1 | 0.1 to 1 | 0.1 to 1 | < 0.1 | 0.1 to 1
C[C@H](NC(=O)c1nc(-c2cccc(S(C)(=O)=O)c2)c(N)nc1N)c1cc2cccc(Cl)c2c(=O)n1-c1ccccc1 | < 0.1 | < 0.1 | 0.1 to 1 | < 0.1 | < 0.1
C[C@H](NC(=O)c1c(N)nn2cccnc12)c1cc2cccc(-c3ccc(=O)n(C)c3)c2c(=O)n1-c1ccccc1 | < 0.1 | ≥ 10 | 0.1 to 1 | < 0.1 | ≥ 10
C[C@H](NC(=O)c1c(N)nn2ccc(-c3cccc(S(C)(=O)=O)c3)nc12)c1cc2cccc(Cl)c2c(=O)n1-c1ccccc1 | < 0.1 | < 0.1 | < 0.1 | < 0.1 | < 0.1
C[C@H](NC(=O)c1nccnc1N)c1cc2cccc(Cl)c2c(=O)n1-c1ccc(F)cc1 | < 0.1 | ≥ 10 | 0.1 to 1 | 0.1 to 1 | 0.1 to 1
C[C@H](NC(=O)c1nc(-c2cccc(NS(C)(=O)=O)c2)cnc1N)c1cc2cccc(Cl)c2c(=O)n1C | < 0.1 | 0.1 to 1 | 0.1 to 1 | < 0.1 | < 0.1
C[C@H](NC(=O)c1c(N)nn2cccnc12)c1cc2cccc(C#CCNC(=O)[C@@H]3CCC(=O)O3)c2c(=O)n1-c1ccccc1 | < 0.1 | 0.1 to 1 | 0.1 to 1 | < 0.1 | 0.1 to 1
C[C@H](NC(=O)c1nc(C#N)cnc1N)c1cc2cccc(Cl)c2c(=O)n1-c1ccccc1 | < 0.1 | ≥ 10 | 0.1 to 1 | 0.1 to 1 | 0.1 to 1
C[C@H](NC(=O)c1c(N)nn2cccnc12)c1cc2cccc(Cl)c2c(=O)n1CCN(C)S(C)(=O)=O | < 0.1 | 0.1 to 1 | 0.1 to 1 | < 0.1 | 0.1 to 1
C[C@H](NC(=O)c1nc(-c2cccc(S(=O)(=O)NC3CC3)c2)cnc1N)c1cc2cccc(Cl)c2c(=O)n1C | < 0.1 | 0.1 to 1 | 0.1 to 1 | < 0.1 | < 0.1
C[C@H](NC(=O)c1nc(-c2cccc(S(=O)(=O)N3CCOCC3)c2)cnc1N)c1cc2cccc(Cl)c2c(=O)n1-c1ccccc1 |  | ≥ 10 | ≥ 10 | ≥ 10 | ≥ 10
C[C@H](NC(=O)c1nc(-c2cncc(NS(C)(=O)=O)c2)cnc1N)c1cc2cccc(Cl)c2c(=O)n1-c1ccccc1 | 0.1 to 1 | 0.1 to 1 | 0.1 to 1 | < 0.1 | < 0.1
C[C@H](NC(=O)c1c(N)nn2cccnc12)c1cc2cccc(Cl)c2c(=O)n1C1CC1 | < 0.1 | 0.1 to 1 | 0.1 to 1 | 0.1 to 1 | < 0.1
